Assay results reported in US8691829B2, “Treatment of liver disorders with PI3K inhibitors” (Gilead Calistoga LLC, priority 2009, dated 2014).

Key:
PI3Kα = PI3Kα (Homo sapiens (Human), UniProt P42336); test: Selectivity of selected PI3K inhibitors (α/δ); type: biochemical; conditions: ratio PI3Kα relative to PI3Kδ
Source text: (§1) The compounds of formula (3) are readily prepared from available starting material using methods that are known in the art. […] Scheme A in that application provides a route by which the thienopyrimidinone portions of compounds of formula (2a) can be prepared, and Schemes B-G provide routes by which the thienopyrimidinone portions of compounds of formula (2b) can be prepared. […] These references also provide methods for determining the activity of these compounds as inhibitors of PI3Kδ; thus those methods are known in the art.

PI3Kδ = PI3Kδ (Homo sapiens (Human), UniProt O00329); test: Activity of selected PI3K inhibitors, Ki (PI3Kδ); type: biochemical
Sequence of PI3Kδ (O00329 whole entry, species assumed): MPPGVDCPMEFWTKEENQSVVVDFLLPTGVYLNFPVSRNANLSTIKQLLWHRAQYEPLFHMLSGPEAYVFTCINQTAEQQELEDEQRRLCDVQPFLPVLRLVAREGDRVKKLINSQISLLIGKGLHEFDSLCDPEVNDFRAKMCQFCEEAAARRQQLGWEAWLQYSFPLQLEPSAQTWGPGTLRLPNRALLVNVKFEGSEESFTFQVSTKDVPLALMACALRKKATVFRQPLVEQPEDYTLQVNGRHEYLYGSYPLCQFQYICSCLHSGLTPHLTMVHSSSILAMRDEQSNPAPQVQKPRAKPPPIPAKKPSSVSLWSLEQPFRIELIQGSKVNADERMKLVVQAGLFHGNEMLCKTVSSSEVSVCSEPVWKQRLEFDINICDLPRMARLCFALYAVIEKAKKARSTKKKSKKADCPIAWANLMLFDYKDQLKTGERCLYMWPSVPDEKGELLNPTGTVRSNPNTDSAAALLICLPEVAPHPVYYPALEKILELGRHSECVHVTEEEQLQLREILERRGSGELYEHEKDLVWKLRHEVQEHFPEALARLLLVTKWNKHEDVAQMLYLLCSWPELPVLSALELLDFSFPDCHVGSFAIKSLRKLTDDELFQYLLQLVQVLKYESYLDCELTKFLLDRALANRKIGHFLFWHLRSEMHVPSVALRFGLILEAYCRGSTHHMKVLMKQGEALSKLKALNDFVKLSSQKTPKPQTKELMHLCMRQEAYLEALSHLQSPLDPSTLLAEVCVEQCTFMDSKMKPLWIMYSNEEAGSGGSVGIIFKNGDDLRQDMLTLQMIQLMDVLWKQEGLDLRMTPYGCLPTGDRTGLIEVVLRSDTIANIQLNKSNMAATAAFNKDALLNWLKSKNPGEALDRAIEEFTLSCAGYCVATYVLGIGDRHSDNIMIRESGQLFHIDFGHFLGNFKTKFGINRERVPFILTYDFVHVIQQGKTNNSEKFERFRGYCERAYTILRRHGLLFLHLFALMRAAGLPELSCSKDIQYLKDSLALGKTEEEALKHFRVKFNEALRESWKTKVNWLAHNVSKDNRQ
Sequence of PI3Kδ (P27986 whole entry partner, species assumed): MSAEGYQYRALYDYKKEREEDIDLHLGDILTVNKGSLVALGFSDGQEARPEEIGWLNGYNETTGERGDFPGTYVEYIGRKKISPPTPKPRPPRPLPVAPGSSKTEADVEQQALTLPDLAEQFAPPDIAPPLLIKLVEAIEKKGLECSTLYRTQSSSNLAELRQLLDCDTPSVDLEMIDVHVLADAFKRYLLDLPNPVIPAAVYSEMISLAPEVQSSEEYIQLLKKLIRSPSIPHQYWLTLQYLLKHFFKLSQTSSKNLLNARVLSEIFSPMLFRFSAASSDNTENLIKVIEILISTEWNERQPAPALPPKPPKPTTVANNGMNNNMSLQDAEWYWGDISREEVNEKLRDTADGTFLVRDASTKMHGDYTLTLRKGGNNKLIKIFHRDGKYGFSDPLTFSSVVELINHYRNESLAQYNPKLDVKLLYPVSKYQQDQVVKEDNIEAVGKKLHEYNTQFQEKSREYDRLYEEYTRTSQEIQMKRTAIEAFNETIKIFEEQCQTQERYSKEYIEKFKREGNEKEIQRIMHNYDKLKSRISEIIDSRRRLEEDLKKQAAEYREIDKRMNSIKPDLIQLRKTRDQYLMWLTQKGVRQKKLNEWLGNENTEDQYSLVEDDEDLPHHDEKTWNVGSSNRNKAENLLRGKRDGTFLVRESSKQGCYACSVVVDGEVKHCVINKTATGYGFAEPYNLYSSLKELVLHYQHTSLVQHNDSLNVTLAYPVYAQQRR
Source text: as §1

PI3Kγ = PI3Kγ (Homo sapiens (Human), UniProt P48736); test: Selectivity of selected PI3K inhibitors (γ/δ); type: biochemical; conditions: ratio PI3Kγ relative to PI3Kδ
Sequence of PI3Kγ (P48736 whole entry, species assumed): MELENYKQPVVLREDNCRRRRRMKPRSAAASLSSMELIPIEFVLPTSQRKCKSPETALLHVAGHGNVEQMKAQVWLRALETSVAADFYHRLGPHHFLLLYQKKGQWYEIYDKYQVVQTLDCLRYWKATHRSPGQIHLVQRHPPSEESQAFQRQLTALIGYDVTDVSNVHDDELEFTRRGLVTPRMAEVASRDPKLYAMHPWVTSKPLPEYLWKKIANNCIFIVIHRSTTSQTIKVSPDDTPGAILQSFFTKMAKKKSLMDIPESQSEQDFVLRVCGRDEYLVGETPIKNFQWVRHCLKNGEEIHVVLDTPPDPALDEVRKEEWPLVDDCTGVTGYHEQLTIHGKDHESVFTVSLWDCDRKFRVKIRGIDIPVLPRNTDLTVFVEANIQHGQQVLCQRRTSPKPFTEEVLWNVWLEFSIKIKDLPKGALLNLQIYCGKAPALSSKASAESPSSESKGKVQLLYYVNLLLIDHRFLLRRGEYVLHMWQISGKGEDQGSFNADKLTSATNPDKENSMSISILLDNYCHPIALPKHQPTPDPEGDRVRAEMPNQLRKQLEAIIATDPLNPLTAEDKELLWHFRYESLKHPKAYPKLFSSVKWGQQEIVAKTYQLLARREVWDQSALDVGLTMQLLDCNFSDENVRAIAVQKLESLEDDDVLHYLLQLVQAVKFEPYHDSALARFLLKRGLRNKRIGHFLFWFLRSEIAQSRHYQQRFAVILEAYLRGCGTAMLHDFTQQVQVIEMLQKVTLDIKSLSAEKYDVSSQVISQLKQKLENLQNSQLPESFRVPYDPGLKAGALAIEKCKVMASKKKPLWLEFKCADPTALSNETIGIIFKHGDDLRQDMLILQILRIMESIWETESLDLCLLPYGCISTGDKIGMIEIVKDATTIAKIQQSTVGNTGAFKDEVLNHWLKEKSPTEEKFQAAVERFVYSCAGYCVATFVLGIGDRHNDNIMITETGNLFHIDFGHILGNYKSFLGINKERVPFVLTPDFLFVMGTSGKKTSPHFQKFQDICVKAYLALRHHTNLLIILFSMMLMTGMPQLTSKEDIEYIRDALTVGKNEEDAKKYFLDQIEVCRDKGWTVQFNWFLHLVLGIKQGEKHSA
Source text: as §1

PI3Kβ = PI3Kβ (Homo sapiens (Human), UniProt P42338); test: Selectivity of selected PI3K inhibitors (β/δ); type: biochemical; conditions: ratio PI3Kβ relative to PI3Kδ
Sequence of PI3Kβ (P42338 whole entry, species assumed): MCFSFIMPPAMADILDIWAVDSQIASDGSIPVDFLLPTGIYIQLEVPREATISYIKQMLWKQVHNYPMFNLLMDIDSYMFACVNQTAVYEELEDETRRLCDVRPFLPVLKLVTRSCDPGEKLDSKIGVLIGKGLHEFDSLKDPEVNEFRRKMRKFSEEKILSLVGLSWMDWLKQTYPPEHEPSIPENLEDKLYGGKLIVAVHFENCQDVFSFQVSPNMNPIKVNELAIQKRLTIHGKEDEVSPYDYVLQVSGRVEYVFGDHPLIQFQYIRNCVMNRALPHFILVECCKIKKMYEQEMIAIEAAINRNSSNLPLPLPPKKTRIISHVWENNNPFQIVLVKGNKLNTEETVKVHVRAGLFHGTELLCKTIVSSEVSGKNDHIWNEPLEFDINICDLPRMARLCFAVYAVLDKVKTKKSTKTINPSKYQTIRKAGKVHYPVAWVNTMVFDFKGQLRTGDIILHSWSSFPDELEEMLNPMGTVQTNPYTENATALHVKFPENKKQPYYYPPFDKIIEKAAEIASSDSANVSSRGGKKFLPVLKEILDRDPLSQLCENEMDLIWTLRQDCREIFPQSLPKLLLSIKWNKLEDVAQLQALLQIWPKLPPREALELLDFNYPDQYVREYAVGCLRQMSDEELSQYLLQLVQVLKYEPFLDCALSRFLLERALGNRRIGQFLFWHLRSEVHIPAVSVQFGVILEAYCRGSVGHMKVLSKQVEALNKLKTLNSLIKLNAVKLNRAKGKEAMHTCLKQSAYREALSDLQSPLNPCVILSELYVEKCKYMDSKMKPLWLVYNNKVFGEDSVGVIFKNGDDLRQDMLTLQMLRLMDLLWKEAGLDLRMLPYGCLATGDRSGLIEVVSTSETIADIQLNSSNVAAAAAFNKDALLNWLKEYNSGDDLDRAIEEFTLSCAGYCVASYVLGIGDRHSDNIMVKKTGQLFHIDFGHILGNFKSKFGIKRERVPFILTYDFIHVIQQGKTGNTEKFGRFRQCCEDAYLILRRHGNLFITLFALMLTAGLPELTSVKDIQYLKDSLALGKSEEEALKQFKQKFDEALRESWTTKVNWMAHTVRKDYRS
Sequence of PI3Kβ (P27986 whole entry partner, species assumed): as the sequence (P27986 whole entry partner, species assumed) above
Source text: as §1

steatosis development = conditions: diet-induced p85 expression and steatosis; Kohli et al. 2007; cited from earlier work
hepatocytes = hepatocytes exposed to conditions that generate reactive oxygen species; Kohli et al. 2007; cited from earlier work

Sequence of PI3Kα (P42336 whole entry, species assumed): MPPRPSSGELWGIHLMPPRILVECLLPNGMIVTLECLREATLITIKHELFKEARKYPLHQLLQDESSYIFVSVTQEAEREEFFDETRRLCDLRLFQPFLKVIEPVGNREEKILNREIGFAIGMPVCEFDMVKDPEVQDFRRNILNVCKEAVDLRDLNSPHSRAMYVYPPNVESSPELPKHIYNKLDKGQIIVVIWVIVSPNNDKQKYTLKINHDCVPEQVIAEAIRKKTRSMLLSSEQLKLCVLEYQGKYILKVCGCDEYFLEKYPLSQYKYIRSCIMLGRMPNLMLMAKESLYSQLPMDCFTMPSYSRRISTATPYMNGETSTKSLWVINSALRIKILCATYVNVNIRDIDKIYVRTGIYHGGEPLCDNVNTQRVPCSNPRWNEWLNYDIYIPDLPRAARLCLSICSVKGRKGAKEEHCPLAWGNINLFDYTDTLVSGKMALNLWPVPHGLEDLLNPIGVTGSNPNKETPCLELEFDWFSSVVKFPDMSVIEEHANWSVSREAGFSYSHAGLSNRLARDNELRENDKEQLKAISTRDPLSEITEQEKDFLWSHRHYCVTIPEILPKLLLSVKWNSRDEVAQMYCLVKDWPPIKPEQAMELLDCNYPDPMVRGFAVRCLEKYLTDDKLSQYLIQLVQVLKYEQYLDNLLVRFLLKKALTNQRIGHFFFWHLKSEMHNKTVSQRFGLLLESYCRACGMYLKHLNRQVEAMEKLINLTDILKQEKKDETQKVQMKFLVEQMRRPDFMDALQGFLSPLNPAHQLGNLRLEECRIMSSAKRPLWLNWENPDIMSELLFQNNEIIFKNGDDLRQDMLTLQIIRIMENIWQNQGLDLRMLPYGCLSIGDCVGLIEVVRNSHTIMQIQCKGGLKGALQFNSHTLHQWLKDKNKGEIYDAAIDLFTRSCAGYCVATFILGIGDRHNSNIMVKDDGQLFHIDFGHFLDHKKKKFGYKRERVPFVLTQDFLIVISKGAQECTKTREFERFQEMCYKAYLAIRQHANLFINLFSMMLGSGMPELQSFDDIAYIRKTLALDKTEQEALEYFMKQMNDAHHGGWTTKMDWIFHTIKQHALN
Sequence of PI3Kα (P27986 whole entry partner, species assumed): as the sequence (P27986 whole entry partner, species assumed) above

Row | SMILES | Selectivity (α/δ) (PI3Kα) | Ki (PI3Kδ) | Selectivity (γ/δ) (PI3Kγ) | Selectivity (β/δ) (PI3Kβ) | steatosis development (steatosis development) | steatosis (accumulation of fat) in hepatocytes (hepatocytes)
1 | CC(c1nc2ccsc2c(=O)n1-c1ccccc1)n1cnc2c(N)ncnc21 (stereo not drawn) [3d] | 1447 | 40 nM | 187 | 126 | – | –
2 | CC(Nc1ncnc2[nH]cnc12)c1nc2ccsc2c(=O)n1-c1ccccc1 (stereo not drawn) [3e] | 528 | 6 nM | 28 | 123 | – | –
3 | Cc1cccc2nc(C(C)n3cnc4c(N)ncnc43)n(-c3ccccc3)c(=O)c12 (stereo not drawn) [4a] | 2963 | 7 nM | 61 | 119 | – | –
4 | Cc1cccc2nc(C(C)Nc3ncnc4[nH]cnc34)n(-c3ccccc3)c(=O)c12 (stereo not drawn) [4b] | 132 | 5 nM | 12 | 29 | – | –
5 | O=c1cc(N2CCOCC2)oc2c(-c3ccccc3)cccc12 [LY294002] | – | – | – | – | blocked steatosis development | can be inhibited
